Measurements published in ChEMBL document CHEMBL3044948, “Synthesis and Herbicidal Activity of N-(1-Arylethenyl)-2-chloroacetamides” (Agric Biol Chem, 1991).
Active and inactive are the calls of the source. No cut-off for these calls is given here.

Key:
Echinochloa oryzicola [1] = experiment: Herbicidal activity against Echinochloa oryzicola at 10 g a.i/a measured after 3 weeks; assay type: functional, organism-based
Echinochloa oryzicola [2] = experiment: Herbicidal activity against Echinochloa oryzicola at 1 g a.i/a measured after 3 weeks; assay type: functional, organism-based

SMILES: C=C(c1ccccc1)N(C(=O)CCl)c1ccccc1OC
- Activity (Echinochloa oryzicola [1]): Active

SMILES: CCN(C(=O)CCl)C(=C(C)C)c1ccccc1
- Activity (Echinochloa oryzicola [2]): Active
- Activity (Echinochloa oryzicola [1]): Active

SMILES: CC(C)=C(c1ccccc1)N(Cc1ccccc1)C(=O)CCl
- Activity (Echinochloa oryzicola [2]): Active
- Activity (Echinochloa oryzicola [1]): Active

SMILES: C=C(c1ccc(OC)cc1)N(CCCCCC)C(=O)CCl
- Activity (Echinochloa oryzicola [1]): Active

SMILES: C=C(c1ccccc1C)N(C(=O)CCl)c1c(C)cccc1C
- Activity (Echinochloa oryzicola [2]): Active
- Activity (Echinochloa oryzicola [1]): Active

SMILES: CC(C)=C(c1ccccc1)N(C(=O)CCl)C(C)C
- Activity (Echinochloa oryzicola [1]): Active

SMILES: C=C(c1cccn1C)N(C(=O)CCl)c1c(C)cccc1C
- Activity (Echinochloa oryzicola [1]): inactive

SMILES: C=C(c1ccco1)N(C(=O)CCl)c1c(C)cccc1C
- Activity (Echinochloa oryzicola [1]): Active

SMILES: C=C(c1ccccc1)N(C(=O)CCl)c1cc(C)nn1C
- Activity (Echinochloa oryzicola [1]): inactive

SMILES: CC(C)=C(c1ccccc1)N(CC(C)C)C(=O)CCl
- Activity (Echinochloa oryzicola [1]): inactive

SMILES: C=CCN(C(=O)CCl)C(=C(C)C)c1ccccc1
- Activity (Echinochloa oryzicola [2]): Active
- Activity (Echinochloa oryzicola [1]): Active

SMILES: C=C(c1ccccc1)N(C(=O)CCl)c1ccccc1C
- Activity (Echinochloa oryzicola [1]): inactive

SMILES: C=C(c1ccccc1)N(C(=O)CCl)c1c(C)cccc1CC
- Activity (Echinochloa oryzicola [2]): Active
- Activity (Echinochloa oryzicola [1]): Active

SMILES: C=C(c1ccc(C#N)cc1)N(C(=O)CCl)c1c(C)cccc1C
- Activity (Echinochloa oryzicola [2]): inactive
- Activity (Echinochloa oryzicola [1]): Active

SMILES: CC=C(c1ccccc1)N(C(=O)CCl)c1c(C)cccc1C (mixture of isomers)
- Activity (Echinochloa oryzicola [2]): inactive
- Activity (Echinochloa oryzicola [1]): Active

SMILES: C=C(c1cccc(Br)c1)N(C(=O)CCl)c1c(C)cccc1C
- Activity (Echinochloa oryzicola [2]): inactive
- Activity (Echinochloa oryzicola [1]): Active

SMILES: CCCCCCN(C(=O)CCl)C(=C(C)C)c1ccccc1
- Activity (Echinochloa oryzicola [2]): Active
- Activity (Echinochloa oryzicola [1]): Active

SMILES: C=C(c1ccccc1)N(C(=O)CCl)c1c(C)cccc1C
- Activity (Echinochloa oryzicola [2]): Active
- Activity (Echinochloa oryzicola [1]): Active

SMILES: CC(C)=C(c1ccccc1)N(Cc1ccco1)C(=O)CCl
- Activity (Echinochloa oryzicola [2]): Active
- Activity (Echinochloa oryzicola [1]): Active

SMILES: C=C(c1ccccc1)N(CC1CCCO1)C(=O)CCl (stereo not given)
- Activity (Echinochloa oryzicola [1]): Active

SMILES: C=C(c1ccc2ccccc2c1)N(C(=O)CCl)c1c(C)cccc1C
- Activity (Echinochloa oryzicola [1]): inactive

SMILES: C=C(c1ccccc1)N(C(=O)CCl)c1cccc2ccccc12
- Activity (Echinochloa oryzicola [1]): inactive

SMILES: C=C(c1ccccc1)N(C(=O)CCl)c1c(CC)cccc1CC
- Activity (Echinochloa oryzicola [2]): inactive
- Activity (Echinochloa oryzicola [1]): Active

SMILES: CCCN(C(=O)CCl)C(=C(C)C)c1ccccc1
- Activity (Echinochloa oryzicola [2]): inactive
- Activity (Echinochloa oryzicola [1]): Active

SMILES: C=C(c1ccccc1OC)N(C(=O)CCl)c1c(C)cccc1C
- Activity (Echinochloa oryzicola [2]): Active
- Activity (Echinochloa oryzicola [1]): Active

SMILES: C=C(c1ccccc1)N(C(=O)CCl)c1c(Cl)cccc1Cl
- Activity (Echinochloa oryzicola [1]): inactive

SMILES: CC(C)=C(c1ccccc1)N(C(=O)CCl)c1ccccc1
- Activity (Echinochloa oryzicola [1]): inactive

SMILES: C=C(c1ccc(Cl)c(Cl)c1)N(C(=O)CCl)c1c(C)cccc1C
- Activity (Echinochloa oryzicola [1]): inactive

SMILES: CC(C)=C(c1ccccc1)N(C(=O)CCl)c1ccc(Cl)cc1
- Activity (Echinochloa oryzicola [1]): Active

SMILES: C=C(c1ccc(SC)s1)N(C(=O)CCl)c1c(C)cccc1C
- Activity (Echinochloa oryzicola [1]): inactive

SMILES: C=C(c1cccc([N+](=O)[O-])c1)N(C(=O)CCl)c1c(C)cccc1C
- Activity (Echinochloa oryzicola [1]): Active

SMILES: CC(C)=C(c1ccccc1)N(C)C(=O)CCl
- Activity (Echinochloa oryzicola [2]): Active
- Activity (Echinochloa oryzicola [1]): Active

SMILES: CCC(C)N(C(=O)CCl)C(=C(C)C)c1ccccc1 (stereo not given)
- Activity (Echinochloa oryzicola [1]): inactive

SMILES: C/C=C(\c1ccccc1)N(CCCC)C(=O)CCl
- Activity (Echinochloa oryzicola [2]): inactive
- Activity (Echinochloa oryzicola [1]): Active

SMILES: CC(C)=C(c1ccccc1)N(C(=O)CCl)c1c(C)cccc1C
- Activity (Echinochloa oryzicola [1]): inactive

SMILES: C=C(c1ccccc1Cl)N(C(=O)CCl)c1c(C)cccc1C
- Activity (Echinochloa oryzicola [2]): Active
- Activity (Echinochloa oryzicola [1]): Active

SMILES: C=C(c1ccccc1)N(C(=O)CCl)c1ccccc1
- Activity (Echinochloa oryzicola [1]): inactive

SMILES: C=CCN(C(=O)CCl)/C(=C/C)c1ccccc1
- Activity (Echinochloa oryzicola [2]): inactive
- Activity (Echinochloa oryzicola [1]): Active

SMILES: C=C(c1ccc(Cl)cc1)N(C(=O)CCl)c1c(C)cccc1C
- Activity (Echinochloa oryzicola [2]): inactive
- Activity (Echinochloa oryzicola [1]): Active

SMILES: C=C(c1ccc(OC)cc1)N(C(=O)CCl)c1c(C)cccc1C
- Activity (Echinochloa oryzicola [2]): inactive
- Activity (Echinochloa oryzicola [1]): Active
